Assays:
[1] = Inhibition of Saccharomyces cerevisiae alpha-glucosidase using para-nitrophenyl-alpha-D-glucopyranoside as substrate preincubated for 15 mins followed by substrate addition measured after 30 mins by spectrophotometric method
[2] = Non-competitive inhibition of Saccharomyces cerevisiae alpha-glucosidase using para-nitrophenyl-alpha-D-glucopyranoside as substrate preincubated for 15 mins followed by substrate addition measured after 30 mins by Lineweaver-Burk plot analysis

Row | IC50 [1] | Ki [2] | Compound
1 | 17.7 µM |  | OC(CSc1nnc(-c2ccco2)c(-c2ccco2)n1)Cn1c2ccccc2c2ccccc21 (stereo not drawn)
2 | 20.1 µM |  | OC(CSc1nnc(-c2cccc(Br)c2)c(-c2cccc(Br)c2)n1)Cn1c2ccccc2c2ccccc21 (stereo not drawn)
3 | 17.6 µM |  | OC(CSc1nnc(-c2ccc(F)cc2)c(-c2ccc(F)cc2)n1)Cn1c2ccccc2c2ccccc21 (stereo not drawn)
4 | 21.1 µM |  | OC(CSc1nnc(-c2ccccc2F)c(-c2ccccc2F)n1)Cn1c2ccccc2c2ccccc21 (stereo not drawn)
5 | 22.1 µM |  | O=[N+]([O-])c1ccc2c(c1)c1ccccc1n2CC(O)CSc1nnc(-c2ccccc2F)c(-c2ccccc2F)n1 (stereo not drawn)
6 | 27.8 µM |  | OC(CSc1nnc(-c2ccccc2)c(-c2ccccc2)n1)Cn1c2ccc(Cl)cc2c2cc(Cl)ccc21 (stereo not drawn)
7 | 19.2 µM |  | OC(CSc1nnc(-c2cccc(Br)c2)c(-c2cccc(Br)c2)n1)Cn1c2ccc(Cl)cc2c2cc(Cl)ccc21 (stereo not drawn)
8 | 47.8 µM |  | OC(CSc1nnc(-c2ccccc2Cl)c(-c2ccccc2Cl)n1)Cn1c2ccccc2c2ccccc21 (stereo not drawn)
9 | 31.3 µM |  | OC(CSc1nnc(-c2ccccc2)c(-c2ccccc2)n1)Cn1c2ccccc2c2ccccc21 (stereo not drawn)
10 | 33.1 µM |  | OC(CSc1nnc(-c2cccc(F)c2)c(-c2cccc(F)c2)n1)Cn1c2ccc(Cl)cc2c2cc(Cl)ccc21 (stereo not drawn)
11 | 9.56 µM |  | OC(CSc1nnc(-c2cccc(Br)c2)c(-c2cccc(Br)c2)n1)Cn1c2ccc(Br)cc2c2cc(Br)ccc21 (stereo not drawn)
12 | 19.3 µM |  | OC(CSc1nnc(-c2ccccc2)c(-c2ccccc2)n1)Cn1c2ccc(Br)cc2c2cc(Br)ccc21 (stereo not drawn)
13 | 4.27 µM | 4.43 µM | OC(CSc1nnc(-c2ccco2)c(-c2ccco2)n1)Cn1c2ccc(Br)cc2c2cc(Br)ccc21 (stereo not drawn)
14 | 9.24 µM |  | OC(CSc1nnc(-c2ccco2)c(-c2ccco2)n1)Cn1c2ccc(Cl)cc2c2cc(Cl)ccc21 (stereo not drawn)
15 | 25 µM |  | O=[N+]([O-])c1ccc2c(c1)c1ccccc1n2CC(O)CSc1nnc(-c2ccccc2)c(-c2ccccc2)n1 (stereo not drawn)
16 | 12.8 µM |  | OC(CSc1nnc(-c2ccccc2F)c(-c2ccccc2F)n1)Cn1c2ccc(Br)cc2c2cc(Br)ccc21 (stereo not drawn)
17 | 996 µM |  | C[C@@H]1O[C@@H](O[C@@H]2[C@@H](O)[C@H](O)[C@H](O[C@H]3[C@H](O)[C@@H](O)C(O)O[C@@H]3CO)O[C@H]2CO)[C@@H](O)[C@H](O)[C@H]1N[C@H]1C=C(CO)[C@@H](O)[C@H](O)[C@H]1O (stereo partly drawn)
